Active and inactive are the calls of the source.
Assays:
[1] = blockers of SFLLRN-triggered platelet ATP secretion – cell-based, human platelets, luminescence, dry powder, dose response (AID 493100); type: functional
[2] = inhibition of K1F phage lysis, E. coli UTI89, bacterial capsule biogenesis inhibitors, alamar blue (AID 488966); type: functional
cells = type: functional, cell-based; details: PPC-1
MDA-MB-435 = experiment: cells; type: functional, cell-based; details: Homo sapiens
[3] = target: Envelope glycoprotein gp160 (Human immunodeficiency virus 1, UniProt Q6QLK5); experiment: inhibitors of HIV fusion peptide binding, primary screen, biochemical, uHTS, fluorescence dequenching (AID 1986)
Envelope glycoprotein gp160, sequence (Q6QLK5 whole entry, the tested form may be a part): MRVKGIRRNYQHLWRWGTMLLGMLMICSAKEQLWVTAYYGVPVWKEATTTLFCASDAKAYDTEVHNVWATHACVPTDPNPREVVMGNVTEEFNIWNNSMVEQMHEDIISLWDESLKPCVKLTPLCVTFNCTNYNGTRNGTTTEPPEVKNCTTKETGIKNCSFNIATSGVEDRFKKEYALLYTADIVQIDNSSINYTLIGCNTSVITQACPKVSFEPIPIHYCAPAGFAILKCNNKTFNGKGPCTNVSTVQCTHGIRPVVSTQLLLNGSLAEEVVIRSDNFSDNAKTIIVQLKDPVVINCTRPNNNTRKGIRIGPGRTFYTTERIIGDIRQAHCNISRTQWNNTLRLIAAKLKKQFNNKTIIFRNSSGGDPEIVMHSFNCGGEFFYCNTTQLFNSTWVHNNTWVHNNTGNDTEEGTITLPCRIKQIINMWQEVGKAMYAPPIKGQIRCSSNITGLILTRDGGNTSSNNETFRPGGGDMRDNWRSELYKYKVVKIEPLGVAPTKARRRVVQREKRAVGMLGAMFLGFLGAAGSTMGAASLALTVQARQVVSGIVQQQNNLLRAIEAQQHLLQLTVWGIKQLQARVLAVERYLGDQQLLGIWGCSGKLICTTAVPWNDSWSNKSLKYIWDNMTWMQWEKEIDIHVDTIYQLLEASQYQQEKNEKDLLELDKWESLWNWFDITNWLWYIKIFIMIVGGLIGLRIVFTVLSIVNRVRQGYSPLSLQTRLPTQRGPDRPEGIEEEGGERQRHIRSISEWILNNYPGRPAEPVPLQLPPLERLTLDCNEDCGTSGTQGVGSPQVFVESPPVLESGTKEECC

Protein RecA = target: T1, Protein RecA (Mycobacterium tuberculosis, UniProt P9WHJ3); experiment: Fluorescence Cell-Free Homogeneous Dose Retest to Identify Inhibitors of RecA-Intein Splicing Activity. [Related pubchem assays (depositor defined):AID2097, AID2223, AID489010, AID492950]; type: functional
T1 sequence (P9WHJ3 whole entry): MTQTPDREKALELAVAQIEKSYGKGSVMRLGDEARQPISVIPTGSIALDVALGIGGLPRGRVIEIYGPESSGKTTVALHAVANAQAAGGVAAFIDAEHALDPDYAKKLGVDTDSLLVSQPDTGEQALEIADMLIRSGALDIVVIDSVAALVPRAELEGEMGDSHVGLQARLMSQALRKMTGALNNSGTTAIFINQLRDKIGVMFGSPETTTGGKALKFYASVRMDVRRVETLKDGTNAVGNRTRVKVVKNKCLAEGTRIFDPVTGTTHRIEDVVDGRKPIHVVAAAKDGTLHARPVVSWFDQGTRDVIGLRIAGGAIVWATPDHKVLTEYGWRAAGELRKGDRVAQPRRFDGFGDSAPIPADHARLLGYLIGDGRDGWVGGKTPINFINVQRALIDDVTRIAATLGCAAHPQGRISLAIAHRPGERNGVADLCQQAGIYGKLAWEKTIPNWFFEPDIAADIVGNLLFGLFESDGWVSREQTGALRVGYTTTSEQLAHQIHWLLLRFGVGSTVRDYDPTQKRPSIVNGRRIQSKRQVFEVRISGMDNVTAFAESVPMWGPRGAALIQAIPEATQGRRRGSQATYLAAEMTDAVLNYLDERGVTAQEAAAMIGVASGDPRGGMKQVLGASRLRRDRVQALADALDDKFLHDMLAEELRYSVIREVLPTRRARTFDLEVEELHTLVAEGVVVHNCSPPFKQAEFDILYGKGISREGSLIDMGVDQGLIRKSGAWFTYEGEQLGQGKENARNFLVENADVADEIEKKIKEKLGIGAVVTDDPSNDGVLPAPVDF

[4] = target: T2, Replicative DNA helicase DnaB (Mycobacterium tuberculosis, UniProt P9WMR3); experiment: DnaB intein splicing inhibitors, dose response, biochemical, cell-free fluorescence (AID 449749); type: functional
T2 sequence (P9WMR3 whole entry): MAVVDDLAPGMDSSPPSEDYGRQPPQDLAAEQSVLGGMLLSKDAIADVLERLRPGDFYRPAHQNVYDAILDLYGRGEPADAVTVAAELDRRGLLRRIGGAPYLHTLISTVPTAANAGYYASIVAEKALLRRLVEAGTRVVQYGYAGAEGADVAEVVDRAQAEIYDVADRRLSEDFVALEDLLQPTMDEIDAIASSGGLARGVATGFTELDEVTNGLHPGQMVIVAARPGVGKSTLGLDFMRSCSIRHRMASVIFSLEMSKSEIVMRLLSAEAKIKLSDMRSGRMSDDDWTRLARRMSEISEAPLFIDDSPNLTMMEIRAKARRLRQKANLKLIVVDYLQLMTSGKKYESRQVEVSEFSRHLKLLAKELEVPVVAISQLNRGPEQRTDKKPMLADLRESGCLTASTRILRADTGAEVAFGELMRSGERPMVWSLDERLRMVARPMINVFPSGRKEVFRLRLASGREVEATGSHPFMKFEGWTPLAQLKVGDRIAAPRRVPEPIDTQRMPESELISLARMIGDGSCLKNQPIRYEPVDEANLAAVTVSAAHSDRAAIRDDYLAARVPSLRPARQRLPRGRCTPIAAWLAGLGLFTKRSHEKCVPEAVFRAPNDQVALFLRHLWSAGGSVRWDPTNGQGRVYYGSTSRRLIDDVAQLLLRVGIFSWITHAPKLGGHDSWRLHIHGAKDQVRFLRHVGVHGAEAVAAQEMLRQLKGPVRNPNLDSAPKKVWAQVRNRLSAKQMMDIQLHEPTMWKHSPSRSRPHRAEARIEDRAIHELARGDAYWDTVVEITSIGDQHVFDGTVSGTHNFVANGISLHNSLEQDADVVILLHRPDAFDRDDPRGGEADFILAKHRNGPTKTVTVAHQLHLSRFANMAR

SUMO-activating enzyme [5] = target: T3, SUMO-activating enzyme (Homo sapiens, UniProt Q9UBT2); experiment: SUMOylation inhibitor hit validation, confirmation, SUMOylation inhibitor project, biochemical, AlphaScreen (AID 2018); type: functional
T3 sequence (Q9UBE0 whole entry): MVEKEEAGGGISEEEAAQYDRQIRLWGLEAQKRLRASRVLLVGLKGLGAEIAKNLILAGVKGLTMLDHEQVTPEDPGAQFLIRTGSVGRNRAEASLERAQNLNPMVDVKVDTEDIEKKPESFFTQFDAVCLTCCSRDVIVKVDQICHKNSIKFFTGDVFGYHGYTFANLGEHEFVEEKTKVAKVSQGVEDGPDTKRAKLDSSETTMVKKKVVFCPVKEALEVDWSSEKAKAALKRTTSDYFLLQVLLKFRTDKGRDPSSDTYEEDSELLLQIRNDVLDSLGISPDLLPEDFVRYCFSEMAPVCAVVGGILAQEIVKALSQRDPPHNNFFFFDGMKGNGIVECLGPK
T3 sequence (Q9UBT2 whole entry): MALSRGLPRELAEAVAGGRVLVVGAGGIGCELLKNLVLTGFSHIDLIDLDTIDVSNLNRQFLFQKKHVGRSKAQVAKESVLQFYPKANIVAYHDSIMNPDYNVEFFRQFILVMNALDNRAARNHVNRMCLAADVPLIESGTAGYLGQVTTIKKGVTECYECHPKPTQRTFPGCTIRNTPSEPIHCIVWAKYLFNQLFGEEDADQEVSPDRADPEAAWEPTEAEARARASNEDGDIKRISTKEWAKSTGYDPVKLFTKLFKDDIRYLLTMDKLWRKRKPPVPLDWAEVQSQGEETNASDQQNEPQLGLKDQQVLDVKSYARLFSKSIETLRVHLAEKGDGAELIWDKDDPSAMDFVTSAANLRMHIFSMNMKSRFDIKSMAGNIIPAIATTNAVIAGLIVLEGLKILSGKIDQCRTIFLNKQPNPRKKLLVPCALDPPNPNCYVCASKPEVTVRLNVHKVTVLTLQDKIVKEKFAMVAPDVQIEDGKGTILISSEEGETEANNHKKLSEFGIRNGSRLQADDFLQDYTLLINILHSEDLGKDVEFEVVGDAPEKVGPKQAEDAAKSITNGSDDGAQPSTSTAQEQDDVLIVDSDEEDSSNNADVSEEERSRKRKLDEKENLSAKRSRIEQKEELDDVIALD

[6] = target: T4, High affinity choline transporter 1 (Homo sapiens, UniProt Q9GZV3); experiment: CHT inhibitors, dose response, cell-based, 5-point CRC, membrane potential dye (AID 504840); type: functional
T4 sequence (Q9GZV3 whole entry): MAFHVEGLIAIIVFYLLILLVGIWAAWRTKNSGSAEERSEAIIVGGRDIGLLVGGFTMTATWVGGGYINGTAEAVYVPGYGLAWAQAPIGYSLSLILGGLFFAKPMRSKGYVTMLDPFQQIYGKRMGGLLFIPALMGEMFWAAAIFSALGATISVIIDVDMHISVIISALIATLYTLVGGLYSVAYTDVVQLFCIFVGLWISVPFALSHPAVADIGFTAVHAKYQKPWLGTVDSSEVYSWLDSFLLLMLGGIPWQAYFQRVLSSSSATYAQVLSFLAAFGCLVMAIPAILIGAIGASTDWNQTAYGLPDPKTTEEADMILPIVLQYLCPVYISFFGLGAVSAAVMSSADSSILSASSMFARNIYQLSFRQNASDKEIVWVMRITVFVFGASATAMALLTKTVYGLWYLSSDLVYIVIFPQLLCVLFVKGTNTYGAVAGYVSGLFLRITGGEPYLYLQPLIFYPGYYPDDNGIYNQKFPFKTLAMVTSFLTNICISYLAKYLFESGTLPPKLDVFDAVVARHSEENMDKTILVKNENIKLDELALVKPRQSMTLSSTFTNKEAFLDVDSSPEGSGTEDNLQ

Cytochrome P450 3A4 = Cytochrome P450 3A4 (Homo sapiens, UniProt P08684); details: Potency;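 note: confirmatory qHTS run detecting inhibitors and substrates of CYP3A4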
Cytochrome P450 3A4, sequence (P08684 whole entry): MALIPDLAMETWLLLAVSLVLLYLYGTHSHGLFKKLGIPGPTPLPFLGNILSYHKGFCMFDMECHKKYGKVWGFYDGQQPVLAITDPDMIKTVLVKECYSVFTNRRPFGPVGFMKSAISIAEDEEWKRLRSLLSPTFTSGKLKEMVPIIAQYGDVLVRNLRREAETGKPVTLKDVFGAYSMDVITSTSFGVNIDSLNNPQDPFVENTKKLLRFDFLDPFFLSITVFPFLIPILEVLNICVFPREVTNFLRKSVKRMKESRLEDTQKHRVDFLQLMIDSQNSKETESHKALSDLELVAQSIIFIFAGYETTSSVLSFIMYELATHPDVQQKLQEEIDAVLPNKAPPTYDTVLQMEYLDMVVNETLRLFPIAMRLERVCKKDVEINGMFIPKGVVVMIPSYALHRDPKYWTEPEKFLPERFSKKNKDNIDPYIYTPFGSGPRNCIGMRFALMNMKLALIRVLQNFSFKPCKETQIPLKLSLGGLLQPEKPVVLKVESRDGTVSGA

SUMO-activating enzyme [7] = target: T3, SUMO-activating enzyme; experiment: inhibitors of in vitro SUMOylation cascade, primary screen, biochemical, HTRF, uHTS (AID 2006); type: protein-complex assay
Genome polyprotein = Genome polyprotein (dengue virus type 2, UniProt P29990); experiment: Dengue-2 NS5 methyltransferase inhibitors, primary screen, biochemical, confirmation dose response (AID 588689); type: functional
Genome polyprotein, sequence (P29990 2492-3391 limits assumed): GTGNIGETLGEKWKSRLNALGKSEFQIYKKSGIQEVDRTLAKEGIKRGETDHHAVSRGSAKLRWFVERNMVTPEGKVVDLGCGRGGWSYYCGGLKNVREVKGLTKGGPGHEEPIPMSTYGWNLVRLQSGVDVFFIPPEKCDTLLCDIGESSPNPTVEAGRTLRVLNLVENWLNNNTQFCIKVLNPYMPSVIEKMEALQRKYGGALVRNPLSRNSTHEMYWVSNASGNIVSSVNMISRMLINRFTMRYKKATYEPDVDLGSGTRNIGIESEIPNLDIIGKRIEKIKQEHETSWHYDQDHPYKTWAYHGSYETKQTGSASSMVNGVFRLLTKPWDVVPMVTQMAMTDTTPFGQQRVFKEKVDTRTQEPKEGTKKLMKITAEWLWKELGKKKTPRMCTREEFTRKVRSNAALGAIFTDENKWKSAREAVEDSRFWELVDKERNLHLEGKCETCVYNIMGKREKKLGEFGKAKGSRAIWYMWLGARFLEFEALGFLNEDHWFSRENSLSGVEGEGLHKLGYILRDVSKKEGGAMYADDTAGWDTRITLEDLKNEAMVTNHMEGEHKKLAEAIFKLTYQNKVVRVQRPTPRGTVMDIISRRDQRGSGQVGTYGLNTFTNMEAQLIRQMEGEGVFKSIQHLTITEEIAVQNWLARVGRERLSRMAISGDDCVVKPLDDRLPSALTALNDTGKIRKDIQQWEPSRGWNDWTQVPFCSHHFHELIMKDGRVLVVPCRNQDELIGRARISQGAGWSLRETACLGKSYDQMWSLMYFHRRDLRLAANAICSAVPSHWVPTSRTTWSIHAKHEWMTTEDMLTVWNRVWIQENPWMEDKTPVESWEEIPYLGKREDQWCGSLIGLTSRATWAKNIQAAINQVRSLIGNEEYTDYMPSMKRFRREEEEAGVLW

[8] = target: T5, Short transient receptor potential channel 4 (Mus musculus, UniProt Q9QUQ5); experiment: TRPC4 positive allosteric modulators, dose response, cell-based, HEK293 TRPC4/mu-opioid, Fluo-4 calcium, EC20 DAMGO (AID 434941); type: functional
T5 sequence (Q9QUQ5 whole entry): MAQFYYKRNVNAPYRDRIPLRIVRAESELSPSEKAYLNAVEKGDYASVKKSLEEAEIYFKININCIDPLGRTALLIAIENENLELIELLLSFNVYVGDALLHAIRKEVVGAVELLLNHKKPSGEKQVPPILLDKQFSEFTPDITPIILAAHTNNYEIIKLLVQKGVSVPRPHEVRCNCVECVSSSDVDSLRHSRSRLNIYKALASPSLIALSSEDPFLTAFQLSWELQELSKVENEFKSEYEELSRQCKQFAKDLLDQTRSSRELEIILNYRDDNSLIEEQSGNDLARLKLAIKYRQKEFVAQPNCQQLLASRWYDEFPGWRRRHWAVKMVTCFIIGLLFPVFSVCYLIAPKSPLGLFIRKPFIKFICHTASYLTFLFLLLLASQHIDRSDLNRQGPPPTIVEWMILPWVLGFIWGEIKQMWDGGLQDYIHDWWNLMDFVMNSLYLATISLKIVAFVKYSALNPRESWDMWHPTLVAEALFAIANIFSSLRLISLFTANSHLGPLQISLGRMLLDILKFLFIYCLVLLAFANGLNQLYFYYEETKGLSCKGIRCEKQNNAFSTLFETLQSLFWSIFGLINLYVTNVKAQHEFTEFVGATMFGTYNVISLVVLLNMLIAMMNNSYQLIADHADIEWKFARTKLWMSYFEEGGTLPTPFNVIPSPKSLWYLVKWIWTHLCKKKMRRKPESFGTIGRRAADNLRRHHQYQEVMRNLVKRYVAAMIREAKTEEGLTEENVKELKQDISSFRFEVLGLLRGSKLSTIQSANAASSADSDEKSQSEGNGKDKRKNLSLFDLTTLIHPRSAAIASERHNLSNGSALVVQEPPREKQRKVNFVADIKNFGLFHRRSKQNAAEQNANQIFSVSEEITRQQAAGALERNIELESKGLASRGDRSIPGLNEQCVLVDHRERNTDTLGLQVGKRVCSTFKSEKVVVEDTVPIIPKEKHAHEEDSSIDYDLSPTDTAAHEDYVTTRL

Neutrophil collagenase = Neutrophil collagenase (Homo sapiens, UniProt P22894); experiment: MMP13 inhibition and MMP selectivity, late-stage follow-up, selectivity assay for MMP13 inhibitor project, biochemical, probe development, late stage results, panel member MMP-8 [IC50 Assay] (AID 2067)
Neutrophil collagenase, sequence (P22894 whole entry): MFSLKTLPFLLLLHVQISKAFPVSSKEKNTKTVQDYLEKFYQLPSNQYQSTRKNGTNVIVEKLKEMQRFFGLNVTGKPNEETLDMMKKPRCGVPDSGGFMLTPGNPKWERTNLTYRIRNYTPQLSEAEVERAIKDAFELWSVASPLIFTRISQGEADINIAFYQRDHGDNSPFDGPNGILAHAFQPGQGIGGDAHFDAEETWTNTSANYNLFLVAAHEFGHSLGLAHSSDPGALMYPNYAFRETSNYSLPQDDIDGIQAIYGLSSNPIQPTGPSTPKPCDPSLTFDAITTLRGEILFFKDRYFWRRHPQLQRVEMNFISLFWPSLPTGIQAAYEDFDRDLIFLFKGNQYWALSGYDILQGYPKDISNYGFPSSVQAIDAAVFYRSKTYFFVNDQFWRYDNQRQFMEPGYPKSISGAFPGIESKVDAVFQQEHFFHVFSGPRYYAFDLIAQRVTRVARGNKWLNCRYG

With `CCCC(=O)Nc1cccc(NC(=O)c2ccccc2F)c1` the AC50 [1] was 31.5 µM (active).

For `O=C(Nc1ccc(N2CCOCC2)cc1)c1ccc2ncsc2c1`, the IC50 [2] was > 150 µM (active).

In the case of `CSc1nc(-c2ccccc2)nc(C(C)C)n1`, the IC50 (cells) was > 10 µM (inactive) and the IC50 (MDA-MB-435) was > 10 µM (inactive).

In the case of `CCCCCc1c2c(cc(O)c1C(=O)O)OC(=O)c1c(cc(OC)cc1C(=O)CCCC)O2` [LOBARIC ACID], the IC50 [3] was 13.1 µM (active), the EC50 (Protein RecA) was 4.98 µM (active) and the AC50 [4] was 6.47 µM (active). The IC50 (SUMO-activating enzyme [5]) was 6.52 µM (active), the IC50 [6] was 11 µM (active) and the AC50 (Cytochrome P450 3A4) was 25.1 µM (inconclusive). For the same compound, the IC50 (SUMO-activating enzyme [7]) was 15.3 µM (active) and the IC50 (Genome polyprotein) was 32.2 µM (active).

In the case of `Cc1cccc(/C=N/NC(=O)c2cccc(Cl)c2)n1`, the EC50 [8] was 5.31 µM (active).

For `Cc1ccc(CSc2nc3c(c(=O)[nH]2)CCC3)cc1`, the IC50 (Neutrophil collagenase) was > 39.8 µM (inactive).

From ChEMBL document CHEMBL1201862, “PubChem BioAssay data set” (2004)
